Laboratory results from patent publication US9403808B2, “Pyrazine derivatives” (Hoffmann-La Roche Inc., priority 2011, dated 2016).

Columns and labels:
[1] = target: human CB1 receptors (Homo sapiens (Human), UniProt P21554); assay: functional cAMP assay, CB1; assay type: cell-based; conditions: functional cAMP assay, CHO cells expressing human CB1; read-out: human CB1 EC50
Procedure: (§1) CHO cells expressing human CB1 or CB2 receptors are seeded 17-24 hours prior to the experiment 50.000 cells per well in a black 96 well plate with flat clear bottom (Corning Costar #3904) in DMEM (Invitrogen No. 31331), 1×HT supplement, with 10% fetal calf serum and incubated at 5% CO2 and 37° C. in a humidified incubator. The growth medium was exchanged with Krebs Ringer Bicarbonate buffer with 1 mM IBMX and incubated at 30° C. for 30 min. Compounds were added to a final assay volume of 100 μl and incubated for 30 min at 30° C. Using the cAMP-Nano-TRF detection kit the assay (Roche Diagnostics) was stopped by the addition of 50 μl lysis reagent (Tris, NaCl, 1.5% Triton X100, 2.5% NP40, 10% NaN3) and 50 μl detection solutions (20 μM mAb Alexa700-cAMP 1:1, and 48 μM Ruthenium-2-AHA-cAMP) and shaken for 2 h at room temperature. The time-resolved energy transfer is measured by a TRF reader (Evotec Technologies GmbH), equipped with a ND:YAG laser as excitation source. The plate is measured twice with the excitation at 355 nm and at the emission with a delay of 100 ns and a gate of 100 ns, total exposure time 10s at 730 (bandwidth 30 nm) or 645 nm (bandwidth 75 nm), respectively. The FRET signal is calculated as follows: FRET=T730-Alexa730-P(T645-B645) with P=Ru730-B730/Ru645-B645, where T730 is the test well measured at […], T645 is the test well measured at 645 nm, B730 and B645 are the buffer controls at 730 nm and 645 nm, respectively. cAMP content is determined from the function of a standard curve spanning from 10 μM to 0.13 nM cAMP.
(§2) EC50 values were determined using Activity Base analysis (ID Business Solution, Limited). The EC50 values for a wide range of cannabinoid agonists generated from this assay were in agreement with the values published in the scientific literature.

[2] = target: human CB2 receptors (Homo sapiens (Human), UniProt P34972); assay: functional cAMP assay, CB2; assay type: cell-based; conditions: functional cAMP assay, CHO cells expressing human CB2; read-out: human CB2 EC50
Procedure: as §1, §2

Sequence of human CB2 receptors (P34972 whole entry): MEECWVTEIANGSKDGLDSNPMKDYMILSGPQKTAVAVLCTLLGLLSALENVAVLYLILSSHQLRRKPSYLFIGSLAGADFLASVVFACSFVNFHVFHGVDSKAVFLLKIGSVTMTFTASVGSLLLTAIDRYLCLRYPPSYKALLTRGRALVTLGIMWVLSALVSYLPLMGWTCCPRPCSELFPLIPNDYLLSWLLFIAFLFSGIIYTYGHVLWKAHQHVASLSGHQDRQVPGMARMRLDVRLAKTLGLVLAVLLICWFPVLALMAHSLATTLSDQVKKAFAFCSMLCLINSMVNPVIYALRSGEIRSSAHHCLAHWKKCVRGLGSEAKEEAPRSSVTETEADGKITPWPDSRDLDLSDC
Sequence of human CB1 receptors (P21554 whole entry): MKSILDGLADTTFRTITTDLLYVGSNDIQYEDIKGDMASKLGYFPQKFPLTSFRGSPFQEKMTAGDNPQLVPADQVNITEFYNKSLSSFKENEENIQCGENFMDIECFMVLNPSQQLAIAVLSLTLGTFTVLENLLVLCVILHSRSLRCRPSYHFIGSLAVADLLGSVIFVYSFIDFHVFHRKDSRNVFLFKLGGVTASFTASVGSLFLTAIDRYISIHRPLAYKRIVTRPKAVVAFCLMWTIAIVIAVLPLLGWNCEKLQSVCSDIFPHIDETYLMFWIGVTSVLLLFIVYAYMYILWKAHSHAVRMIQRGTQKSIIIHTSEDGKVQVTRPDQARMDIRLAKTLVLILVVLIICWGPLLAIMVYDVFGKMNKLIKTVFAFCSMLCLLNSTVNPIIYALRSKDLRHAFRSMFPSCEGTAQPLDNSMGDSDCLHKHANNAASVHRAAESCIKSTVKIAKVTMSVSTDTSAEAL

| Compound | EC50 [1] [nM] | EC50 [2] [nM] |
| --- | --- | --- |
| CNC(=O)[C@@H](NC(=O)c1cnc(N2CC(F)(F)C2)c(OCC2CC2)n1)C(C)(C)C [Example 8, 6-Cyclopropylmethoxy-5-(3,3-difluoro-azetidin-1-yl)-pyrazine-2-carboxylic acid ((S)-2,2-dimethyl-1-methylcarbamoyl-propyl)-amide] | > 10000 | 18.5 |
| Cc1nc(C2(NC(=O)c3cnc(N4CC(F)(F)C4)c(OCC4CC4)n3)CCC2)no1 [Example 9, 6-Cyclopropylmethoxy-5-(3,3-difluoro-azetidin-1-yl)-pyrazine-2-carboxylic acid [1-(5-methyl-[1,2,4]oxadiazol-3-yl)-cyclobutyl]-amide] | 1290 | 87.9 |
| CC(C)(CCO)NC(=O)c1cnc(C2CC2)c(OCC2CC2)n1 [Example 10, 5-Cyclopropyl-6-cyclopropylmethoxy-pyrazine-2-carboxylic acid (3-hydroxy-1,1-dimethyl-propyl)-amide] | > 10000 | 257 |
| O=C(NC1(CO)CCC1)c1cnc(C2CC2)c(OCC2CC2)n1 [Example 11, 5-Cyclopropyl-6-cyclopropylmethoxy-pyrazine-2-carboxylic acid (1-hydroxymethyl-cyclobutyl)-amide] | 3320 | 124 |
| Cc1nc(C2(NC(=O)c3cnc(C4CC4)c(OCC4CC4)n3)CCC2)no1 [Example 12, 5-Cyclopropyl-6-cyclopropylmethoxy-pyrazine-2-carboxylic acid [1-(5-methyl-[1,2,4]oxadiazol-3-yl)-cyclobutyl]-amide] | > 10000 | 85.2 |
| CCC(C)(CO)NC(=O)c1cnc(C2CC2)c(OCC2CC2)n1 (stereo not drawn) [Example 13, 5-Cyclopropyl-6-cyclopropylmethoxy-pyrazine-2-carboxylic acid (1-hydroxymethyl-1-methyl-propyl)-amide] | > 10000 | 63.4 |
| CNC(=O)[C@@H](NC(=O)c1cnc(C2CC2)c(OCC2CC2)n1)C(C)(C)C [Example 14, 5-Cyclopropyl-6-cyclopropylmethoxy-pyrazine-2-carboxylic acid ((S)-2,2-dimethyl-1-methylcarbamoyl-propyl)-amide] | 155 | 6.8 |
| NC(=O)[C@@H](NC(=O)c1cnc(C2CC2)c(OCC2CC2)n1)c1ccccc1 [Example 15, 5-Cyclopropyl-6-cyclopropylmethoxy-pyrazine-2-carboxylic acid ((S)-carbamoyl-phenyl-methyl)-amide] | > 10000 | 141 |
| CC(C)(O)[C@H](CC1CC1)NC(=O)c1cnc(N2CC(F)(F)C2)c(OCC2CC2)n1 [Example 16, 6-Cyclopropylmethoxy-5-(3,3-difluoro-azetidin-1-yl)-pyrazine-2-carboxylic acid ((S)-1-cyclopropylmethyl-2-hydroxy-2-methyl-propyl)-amide] | > 10000 | 36.9 |
| CC(C)(C)C(CO)NC(=O)c1cnc(C2CC2)c(OCC2CC2)n1 (stereo not drawn) [Example 19, 5-Cyclopropyl-6-cyclopropylmethoxy-pyrazine-2-carboxylic acid (1-hydroxymethyl-2,2-dimethyl-propyl)-amide] | > 10000 | 53.5 |
| Cc1nc([C@H](CC2CC2)NC(=O)c2cnc(N3CC(F)(F)C3)c(OCC3CC3)n2)no1 [Example 20, 6-Cyclopropylmethoxy-5-(3,3-difluoro-azetidin-1-yl)-pyrazine-2-carboxylic acid [(S)-2-cyclopropyl-1-(5-methyl-[1,2,4]oxadiazol-3-yl)-ethyl]-amide] | > 10000 | 28.4 |
| O=C(NC(CO)C1CC1)c1cnc(N2CC(F)(F)C2)c(OCC2CC2)n1 (stereo not drawn) [Example 21, 6-Cyclopropylmethoxy-5-(3,3-difluoro-azetidin-1-yl)-pyrazine-2-carboxylic acid (1-cyclopropyl-2-hydroxy-ethyl)-amide] | > 10000 | 61.3 |
| NC(=O)[C@@H](NC(=O)c1cnc(N2CC(F)(F)C2)c(OCC2CC2)n1)c1ccccc1 [Example 22, 6-Cyclopropylmethoxy-5-(3,3-difluoro-azetidin-1-yl)-pyrazine-2-carboxylic acid ((S)-carbamoyl-phenyl-methyl)-amide] | > 10000 | 93 |
| COC(=O)[C@@H](NC(=O)c1cnc(C2CC2)c(OCC2CC2)n1)C(C)(C)C [Example 23, (S)-2-[(5-Cyclopropyl-6-cyclopropylmethoxy-pyrazine-2-carbonyl)-amino]-3,3-dimethyl-butyric acid methyl ester] | 157 | 1.7 |
| CNC(=O)[C@H](CC1CC1)NC(=O)c1cnc(C2CC2)c(OCC2CC2)n1 [Example 24, 5-Cyclopropyl-6-cyclopropylmethoxy-pyrazine-2-carboxylic acid ((S)-2-cyclopropyl-1-methylcarbamoyl-ethyl)-amide] | > 10000 | 199 |
| CN(C)C(=O)[C@H](CC1CC1)NC(=O)c1cnc(C2CC2)c(OCC2CC2)n1 [Example 25, 5-Cyclopropyl-6-cyclopropylmethoxy-pyrazine-2-carboxylic acid ((S)-2-cyclopropyl-1-dimethylcarbamoyl-ethyl)-amide] | > 10000 | 14.6 |
| CNC(=O)[C@H](CC(C)C)NC(=O)c1cnc(C2CC2)c(OCC2CC2)n1 [Example 26, 5-Cyclopropyl-6-cyclopropylmethoxy-pyrazine-2-carboxylic acid ((S)-3-methyl-1-methylcarbamoyl-butyl)-amide] | > 10000 | 13.5 |
| CC(C)C[C@H](NC(=O)c1cnc(C2CC2)c(OCC2CC2)n1)C(=O)N(C)C [Example 27, 5-Cyclopropyl-6-cyclopropylmethoxy-pyrazine-2-carboxylic acid ((S)-1-dimethylcarbamoyl-3-methyl-butyl)-amide] | > 10000 | 2.7 |
| NC(=O)[C@H](CC1CC1)NC(=O)c1cnc(C2CC2)c(OCC2CC2)n1 [Example 28, 5-Cyclopropyl-6-cyclopropylmethoxy-pyrazine-2-carboxylic acid ((S)-1-carbamoyl-2-cyclopropyl-ethyl)-amide] | > 10000 | 43.5 |
| CC(C)C[C@H](NC(=O)c1cnc(C2CC2)c(OCC2CC2)n1)C(N)=O [Example 29, 5-Cyclopropyl-6-cyclopropylmethoxy-pyrazine-2-carboxylic acid ((S)-1-carbamoyl-3-methyl-butyl)-amide] | 1570 | 4.1 |
| CCC(CC)(NC(=O)c1cnc(C2CC2)c(OCC2CC2)n1)C(=O)OC [Example 30, 2-[(5-Cyclopropyl-6-cyclopropylmethoxy-pyrazine-2-carbonyl)-amino]-2-ethyl-butyric acid methyl ester] | 255 | 1.4 |
| CNC(=O)[C@H](CC1CC1)NC(=O)c1cnc(N2CC(F)(F)C2)c(OCC2CC2)n1 [Example 31, 6-Cyclopropylmethoxy-5-(3,3-difluoro-azetidin-1-yl)-pyrazine-2-carboxylic acid ((S)-2-cyclopropyl-1-methylcarbamoyl-ethyl)-amide] | > 10000 | 124 |
| CN(C)C(=O)[C@H](CC1CC1)NC(=O)c1cnc(N2CC(F)(F)C2)c(OCC2CC2)n1 [Example 32, 6-Cyclopropylmethoxy-5-(3,3-difluoro-azetidin-1-yl)-pyrazine-2-carboxylic acid ((S)-2-cyclopropyl-1-dimethylcarbamoyl-ethyl)-amide] | > 10000 | 59.6 |
| CNC(=O)[C@H](CC(C)C)NC(=O)c1cnc(N2CC(F)(F)C2)c(OCC2CC2)n1 [Example 33, 6-Cyclopropylmethoxy-5-(3,3-difluoro-azetidin-1-yl)-pyrazine-2-carboxylic acid ((S)-3-methyl-1-methylcarbamoyl-butyl)-amide] | > 10000 | 11.8 |
| CC(C)C[C@H](NC(=O)c1cnc(N2CC(F)(F)C2)c(OCC2CC2)n1)C(=O)N(C)C [Example 34, 6-Cyclopropylmethoxy-5-(3,3-difluoro-azetidin-1-yl)-pyrazine-2-carboxylic acid ((S)-1-dimethylcarbamoyl-3-methyl-butyl)-amide] | > 10000 | 13.6 |
| COC(=O)[C@H](CC1CC1)NC(=O)c1cnc(C2CC2)c(OCC2CC2)n1 [Example 35, (S)-3-Cyclopropyl-2-[(5-cyclopropyl-6-cyclopropylmethoxy-pyrazine-2-carbonyl)-amino]-propionic acid methyl ester] | > 10000 | 43.3 |
| COC(=O)[C@H](CC1CC1)NC(=O)c1cnc(N2CC(F)(F)C2)c(OCC2CC2)n1 [Example 36, (S)-3-Cyclopropyl-2-{[6-cyclopropylmethoxy-5-(3,3-difluoro-azetidin-1-yl)-pyrazine-2-carbonyl]-amino}-propionic acid methyl ester] | > 10000 | 9.6 |
